This is an account of results in patent US20260274833A1 (NiKang Therapeutics, Inc., priority 2022, published 2026).

The test deals with T1, CDK2 (Homo sapiens, UniProt P24941).
T1 construct: endogenous in cells; host or cells: OVCAR3 cells
The experiment in a line: Phospho-RB measurement in OVCAR3 cells (HTRF phospho-RB cellular kit). In kind it is cell-based. To be noted: 24 h compound treatment. The method, boiled down:
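IC50 came from a four-parameter logistic fit of the DMSO-normalized TR-FRET ratio (665/620 nm). That ratio reflects RB phosphorylation at S807/811, read with an HTRF antibody pair 4 h after adding lysate at room temperature.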
In general terms: Time-resolved FRET reads energy transfer from a long-lived donor to a nearby acceptor.

Setting [1] is: inhibition of RB phosphorylation at S807/811 (HTRF, TR-FRET ratio 665/620), 0.3 to 10,000 nM.

Broadly, the IC50 is the point on the concentration scale where inhibition reaches its midpoint. Take `CC(C)(C)c1nc(-c2cccc(NS(=O)(=O)N3CCc4ccc(C#N)cc43)c2F)c(-c2ccnc(NC3CCN(S(C)(=O)=O)CC3)n2)s1` [Example 118, N-(3-(2-(tert-butyl)-5-(2-((1-(methylsulfonyl)-piperidin-4-yl)amino)-pyrimidin-4-yl)thiazol-4-yl)-2-fluorophenyl)-6-cyanoindoline-1-sulfonamide]: the IC50 under setting [1] is 66.9 nM.

Take `CC(C)(C)c1nc(-c2cccc(NS(=O)(=O)N3CCC4(CC4)C3)c2F)c(-c2ccnc(NC3CC4(C3)CN(S(C)(=O)=O)C4)n2)s1` [Example 199, N-(3-(2-(tert-butyl)-5-(2-((2-(methylsulfonyl)-2-azaspiro [3.3]heptan-6-yl)amino)pyrimidin-4-yl)thiazol-4-yl)-2-fluorophenyl)-5-azaspiro [2.4]heptane-5-sulfonamide]: the IC50 under setting [1] is over 3840 nM.

`CS(=O)(=O)[C@H]1CC[C@H](Nc2nccc(-c3sc(N4C5CCC4CN(CC(F)F)C5)nc3-c3cccc(NS(=O)(=O)N4CCc5ccc(C(F)(F)F)cc54)c3F)n2)CC1` [Example 299, N-(3-(2-(3-(2,2-difluoroethyl)-3,8-diazabicyclo[3.2.1]octan-8-yl)-5-(2-(((1r,4r)-4-(methylsulfonyl)cyclohexyl)-amino)pyrimidin-4-yl)thiazol-4-yl)-2-fluorophenyl)-6-(trifluoromethyl)-indoline-1-sulfonamide]: under setting [1], the half-maximal inhibitory concentration (IC50) is 449 nM.

Regarding `CC(C)(C)c1nc(-c2cccc(NS(=O)(=O)N3Cc4cc(F)c(F)cc4C3)c2F)c(-c2ccnc(NC3CCN(S(C)(=O)=O)CC3)n2)s1` [Example 77], the IC50 under setting [1] came out at 367 nM.

With `CC(C)(C)c1nc(-c2cccc(NS(=O)(=O)N3Cc4cccc(Oc5cccc(F)c5)c4C3)c2F)c(-c2ccnc(NC3CC4(C3)CS(=O)(=O)C4)n2)s1` [Example 214, N-(3-(2-(tert-butyl)-5-(2-((2,2-dioxido-2-thiaspiro[3.3]heptan-6-yl)amino)-pyrimidin-4-yl)thiazol-4-yl)-2-fluorophenyl)-4-(3-fluorophenoxy)-isoindoline-2-sulfonamide], under setting [1], the IC50 is 535 nM.

Consider `CN(C)Cc1cccc2c1CN(S(=O)(=O)Nc1cccc(-c3nc(C(C)(C)C)sc3-c3ccnc(NC4CC5(C4)CS(=O)(=O)C5)n3)c1F)C2` [Example 197, N-(3-(2-(tert-butyl)-5-(2-((2,2-dioxido-2-thiaspiro[3.3]heptan-6-yl)amino)-pyrimidin-4-yl)thiazol-4-yl)-2-fluoro-phenyl)-4-((dimethylamino)methyl)-isoindoline-2-sulfonamide], for which the IC50 under setting [1] worked out at 1080 nM.

For the molecule `CC(C)(C)c1nc(-c2cccc(NS(=O)(=O)N3Cc4cccc(OCCN)c4C3)c2F)c(-c2ccnc(NC3CCN(S(C)(=O)=O)CC3)n2)s1` [Example 244, 4-(2-aminoethoxy)-N-(3-(2-(tert-butyl)-5-(2-((1-(methylsulfonyl)piperidin-4-yl)amino)-pyrimidin-4-yl)thiazol-4-yl)-2-fluorophenyl)-isoindoline-2-sulfonamide], the IC50 under setting [1] turned out to be 1450 nM.

Turning to `CC(C)(C)c1nc(-c2cccc(NS(=O)(=O)N3CCc4ncccc43)c2F)c(-c2ccnc(NC3CC4(C3)CS(=O)(=O)C4)n2)s1` [Example 190, N-(3-(2-(tert-butyl)-5-(2-((2,2-dioxido-2-thiaspiro[3.3]heptan-6-yl)amino)-pyrimidin-4-yl)thiazol-4-yl)-2-fluoro-phenyl)-2,3-dihydro-1H-pyrrolo[3,2-b]-pyridine-1-sulfonamide], the IC50 under setting [1] was 259 nM.

On to `CCN(CC)S(=O)(=O)Nc1cccc(-c2nc(C(C)(C)C)sc2-c2ccnc(NC3CC4(C3)CS(=O)(=O)C4)n2)c1F` [Example 191, N-(3-(2-(tert-butyl)-5-(2-((2,2-dioxido-2-thiaspiro[3.3]heptan-6-yl)amino)-pyrimidin-4-yl)thiazol-4-yl)-2-fluoro-phenyl)-diethylamine-sulfonamide], for which the IC50 under setting [1] amounted to 8620 nM.

With `Cn1c(-c2ccc3c(c2)N(S(=O)(=O)Nc2cccc(-c4nc(C(C)(C)C)sc4-c4ccnc(NC5CC6(C5)CS(=O)(=O)C6)n4)c2F)CC3)cccc1=O` [Example 220, N-(3-(2-(tert-butyl)-5-(2-((2,2-dioxido-2-thiaspiro[3.3]heptan-6-yl)amino)-pyrimidin-4-yl)thiazol-4-yl)-2-fluoro-phenyl)-6-(1-methyl-6-oxo-1,6-dihydropyridin-2-yl)indoline-1-sulfonamide], the IC50 under setting [1] stood at 802 nM.

Regarding `CN(C)CCN(C)S(=O)(=O)N1CCC(Nc2nccc(-c3sc(C(C)(C)C)nc3-c3cccc(NS(=O)(=O)N4Cc5cccnc5C4)c3F)n2)CC1` [Example 121, N-(3-(2-(tert-butyl)-5-(2-((1~(N-(2-(dimethylamino)ethyl)-N-methylsulfamoyl)-piperidin-4-yl)amino)-pyrimidin-4-yl)thiazol-4-yl)-2-fluoro-phenyl)-5,7-dihydro-6H-pyrrolo[3,4-b]-pyridine-6-sulfonamide], the IC50 under setting [1] is 265 nM.

For the setting “inhibition of RB phosphorylation at S807/811 (HTRF)”, `CC(=O)N1CCN(S(=O)(=O)Nc2cccc(-c3nc(C(C)(C)C)sc3-c3ccnc(NC4CCN(S(C)(=O)=O)CC4)n3)c2F)CC1` [Example 88, 4-acetyl-N-(3-(2-(tert-butyl)-5-(2-((1-(methylsulfonyl)piperidin-4-yl)amino)-pyrimidin-4-yl)thiazol-4-yl)-2-fluoro-phenyl)-piperazine-1-sulfonamide] had an IC50 of over 10000 nM.

Take `CN1CCN(S(=O)(=O)N2CCC(Nc3nccc(-c4sc(C(C)(C)C)nc4-c4cccc(NS(=O)(=O)N(C)C5CC5)c4F)n3)CC2)CC1` [Example 112, N-(3-(2-(tert-butyl)-5-(2-((1-((4-methylpiperazin-1-yl)sulfonyl)piperidin-4-yl)amino)pyrimidin-4-yl)thiazol-4-yl)-2-fluorophenyl)-(N-methyl-N-cyclopropylamine)-sulfonamide]: under setting [1], the IC50 turned out to be 1210 nM.

`COc1cccc2c1CN(S(=O)(=O)Nc1cccc(-c3nc(C4(C)CCOCC4)sc3-c3ccnc(NC4CC5(C4)CS(=O)(=O)C5)n3)c1F)C2` [Example 2, N-(3-(5-(2-((2,2-dioxido-2-thiaspiro-[3.3]-heptan-6-yl)amino)pyrimidin-4-yl)-2-(4-methyltetrahydro-2H-pyran-4-yl)-thiazol-4-yl)-2-fluorophenyl)-4-methoxyisoindoline-2-sulfonamide]: the half-inhibitory concentration (IC50) under setting [1] came out at 75.5 nM.

Consider `O=S1(=O)CC2(CC(Nc3nccc(-c4sc(C56CC(C5)C6)nc4-c4cccc(NS(=O)(=O)N5Cc6cccc(C(F)F)c6C5)c4F)n3)C2)C1` [Example 28, N-(3-(2-(bicyclo [1.1.1]pentan-1-yl)-5-(2-((2,2-dioxido-2-thiaspiro[3.3]heptan-6-yl)amino)-pyrimidin-4-yl)thiazol-4-yl)-2-fluorophenyl)-4-(difluoromethyl)-isoindoline-2-sulfonamide], for which the half-maximal inhibitory concentration (IC50) under setting [1] was determined as 71.9 nM.

On to `CN(C)CCOc1ccc2c(c1)N(S(=O)(=O)Nc1cccc(-c3nc(C(C)(C)C)sc3-c3ccnc(NC4CCN(S(C)(=O)=O)CC4)n3)c1F)CC2` [Example 188, N-(3-(2-(tert-butyl)-5-(2-((1-(methylsulfonyl)-piperidin-4-yl)amino)-pyrimidin-4-yl)thiazol-4-yl)-2-fluoro-phenyl)-6-(2-(dimethylamino)-ethoxy)-indoline-1-sulfonamide], for which the IC50 under setting [1] came out at 1660 nM.

Consider `CN1CCN(S(=O)(=O)N2CCC(Nc3nccc(-c4sc(C(C)(C)C)nc4-c4cccc(NS(=O)(=O)N5CCc6c(C#N)cccc65)c4F)n3)CC2)CC1` [Example 125, N-(3-(2-(tert-butyl)-5-(2-((1-((4-methyl-piperazin-1-yl)sulfonyl)piperidin-4-yl)amino)-pyrimidin-4-yl)thiazol-4-yl)-2-fluorophenyl)-4-cyanoindoline-1-sulfonamide], for which, under setting [1], the IC50 amounted to 204 nM.

In the case of `C#Cc1ccc2c(c1)N(S(=O)(=O)Nc1cccc(-c3nc(C45CC(C4)C5)sc3-c3ccnc(NC4CC5(C4)CS(=O)(=O)C5)n3)c1F)CC2` [Example 26, N-(3-(2-(bicyclo [1.1.1]pentan-1-yl)-5-(2-((2,2-dioxido-2-thiaspiro[3.3]heptan-6-yl)amino)-pyrimidin-4-yl)thiazol-4-yl)-2-fluorophenyl)-6-ethynylindoline-1-sulfonamide], the IC50 under setting [1] turned out to be 160 nM.

For `CS(=O)(=O)[C@H]1CC[C@H](Nc2nccc(-c3sc(C45CC(F)(C4)C5)nc3-c3cccc(NS(=O)(=O)N4CCc5ccc(C(F)(F)F)cc54)c3F)n2)CC1` [Example 276, N-(2-fluoro-3-(2-(3-fluorobicyclo-[1.1.1]pentan-1-yl)-5-(2-(((1s,4s)-4-(methylsulfonyl)-cyclohexyl)amino)-pyrimidin-4-yl)thiazol-4-yl)phenyl)-6-(trifluoromethyl) indoline-1-sulfonamide], the IC50 under setting [1] was 192 nM.

Turning to `COc1ccc2c(c1)N(S(=O)(=O)Nc1cccc(-c3nc(C45CC(C4)C5)sc3-c3ccnc(NC4CC5(C4)CS(=O)(=O)C5)n3)c1F)CC2` [Example 20, N-(3-(2-(bicyclo [1.1.1]pentan-1-yl)-5-(2-((2,2-dioxido-2-thiaspiro[3.3]heptan-6-yl)amino)-pyrimidin-4-yl)thiazol-4-yl)-2-fluorophenyl)-6-methoxyindoline-1-sulfonamide], the IC50 under setting [1] came to 208 nM.

In the case of `CNS(=O)(=O)N1CCC(Nc2nccc(-c3sc(C(C)(C)C)nc3-c3cccc(NS(=O)(=O)N4Cc5ccccc5C4)c3F)n2)CC1` [Example 75, N-(3-(2-(tert-butyl)-5-(2-((1-(N-methylsulfamoyl)piperidin-4-yl)amino)-pyrimidin-4-yl)thiazol-4-yl)-2-fluoro-phenyl)-isoindoline-2-sulfonamide], the IC50 under setting [1] is 65 nM.

Consider `CN1CCN(S(=O)(=O)Nc2cccc(-c3nc(C(C)(C)C)sc3-c3ccnc(NC4CCN(S(C)(=O)=O)CC4)n3)c2F)Cc2ccccc21` [Example 137, N-(3-(2-(tert-butyl)-5-(2-((1-(methylsulfonyl)-piperidin-4-yl)amino)-pyrimidin-4-yl)thiazol-4-yl)-2-fluoro-phenyl)-1-methyl-1,2,3,5-tetrahydro-4H-benzo[e][1,4] diazepine-4-sulfonamide], for which the IC50 under setting [1] is 286 nM.
